In brackets after ≈: the same amount, converted by molar mass.
Test system: Radical scavenging activity
Assay: Antioxidant activity assessed as DPPH radical scavenging activity
Format: functional

SMILES | IC50
Cc1cc(O[C@@H]2O[C@H](CO)[C@@H](O)[C@H](O)[C@H]2O)c2c(c1)C(=O)c1cc(O)cc(O)c1C2=O | > 100 µg/mL
COc1cc(O[C@@H]2O[C@H](CO)[C@@H](O)[C@H](O)[C@H]2O)c2c(O)c(C(C)=O)c(C)cc2c1 | 18.5 µg/mL (≈ 45.3 µM)
O=C1O[C@H]([C@@H](O)CO)C(O)=C1O [ASCORBIC ACID] | 3.9 µg/mL (≈ 22.1 µM)
Oc1cc(O)c2c(c1)O[C@H](c1ccc(O)c(O)c1)[C@H](O)C2 [(-)-EPICATECHIN] | 1.7 µg/mL (≈ 5.86 µM)
COc1cc(O)c2c(c1)C(=O)c1cc(C)cc(O[C@@H]3O[C@H](CO)[C@@H](O)[C@H](O)[C@H]3O)c1C2=O | > 100 µg/mL

Further lines, results first:

IC50 | SMILES
4.7 µg/mL (≈ 15.5 µM) | COc1cc(O)cc2c1C(=O)C(O)(Cc1ccc(O)cc1)O2 (stereo unspecified) [CARPUSIN]
> 100 µg/mL | COc1cc(O)c2c(c1)C(=O)c1cc(C)cc(O)c1C2=O [PHYSCION]
> 100 µg/mL | Cc1cc(O)c2c(c1)C(=O)c1cccc(O)c1C2=O [CHRYSOPHANOL]
> 100 µg/mL | Cc1cc(O)c2c(c1)C(=O)c1cc(O)cc(O)c1C2=O [EMODIN]
> 100 µg/mL | Cc1cc(O)c2c(c1)C(=O)c1cccc(O[C@@H]3O[C@H](CO)[C@@H](O)[C@H](O)[C@H]3O)c1C2=O [PULMATIN]
5.3 µg/mL (≈ 18.4 µM) | O=C1c2c(O)cc(O)cc2OC1(O)Cc1ccc(O)cc1 (stereo unspecified) [MAESOPSIN]

Reference: ChEMBL document CHEMBL1146577, “Sulfemodin 8-O-beta-D-glucoside, a new sulfated anthraquinone glycoside, and antioxidant phenolic compounds from Rheum emodi” (J Nat Prod, 2003)
